The values below come from patent US20230069963A1, “PYRAZOLO[1,5-A]PYRIMIDINE MACROCYCLIC COMPOUND” (priority 2018, published 2023).

Structures are written as SMILES. pEC50: −log10 of the molar value. Where a name gives a salt, the structure may show the parent alone.

The test system of the test is RSV ATCC VR-1540 (A2). Put plainly: microbe, parasite or virus in culture. It counts as cell-based. The following applies: human respiratory syncytial virus, HEp-2, 96 h; Hep2 cells, incubated for 4 days, CPE detected with XTT assay (absorbance 450 nm); read-out: EC50 (nmol/L) against RSV A2 strain. For orientation: Formazan colour is commonly taken as a measure of viable cells.
As to `NC1CN(c2cc3n4nc(cc4n2)[C@@H]2CCCCN2C(=O)c2cc(F)ccc2OCC(=O)NCCN3C2CC2)C1` [Example 14, (18aS)-13-(3-aminoazetidin-1-yl)-11-cyclopropyl-2-fluoro-8,9,10,11,19,20,21,22-octahydro-18aH,24H-18,15-(metheno)pyrido[2,1-l]pyrimido[6,1-h][1,4,7,9,10,13]benzoxapentaazacyclohexadecine-7,24(6H)-dione], the pEC50 is 8.64.

Turning to `COc1cc2n3nc(cc3n1)[C@@H]1CCCCN1C(=O)c1cc(F)ccc1OCC(=O)NCCN2C` [Example 20, (18aS)-2-fluoro-I 3-methoxy-11-methyl-8,9,10,11,19,20,21,22-octahydro-18aH,24H-18,15-(metheno)pyrido[2,1-l]pyrimido[6,1-h][1,4,7,9,10,13]benzoxapentaazacyclohexadecine-7,24(6H)-dione], the pEC50 is 8.90.

Turning to `CN1CCNC(=O)COc2ccc(F)cc2C(=O)N2CCCC[C@H]2c2cc3nc(CN)cc1n3n2` [Example 25, (18aS)-13-(aminomethyl)-2-fluoro-11-methyl-8,9,10,11,19,20,21,22-octahydro-18aH,24H-18,15-(metheno)pyrido[2,1-l]pyrimido[6,1-h][1,4,7,9,10,13]benzoxapentaazacyclohexadecine-7,24(6H)-dione], the pEC50 is approximately 7.85.

As to `CCc1ccc2c(c1)C(=O)N1CCCC[C@H]1c1cc3nc(OCCN)cc(n3n1)N(C)CCNC(=O)CO2` [Example 50, (18aS)-13-(2-aminoethoxy)-2-ethyl-1-methyl-8,9,10,11,19,20,21,22-octahydro-18aH,24H-18,15-(metheno)pyrido[2,1-l]pyrimido[6,1-h][1,4,7,9,10,13]benzoxapentaazacyclohexadecine-7,24(6H)-dione], the pEC50 was 8.66.

Regarding `COc1ccc2c(c1)C(=O)N1CCCC[C@H]1c1cc3nc(N4CCC4)cc(n3n1)N(C)CCNC(=O)CO2` [Example 51, (18aS)-13-(azetidin-1-yl)-2-methoxy-11-methyl-8,9,10,11,19,20,21,22-octahydro-18aH,24H-18,15-(metheno)pyrido[2,1-l]pyrimido[6,1-h][1,4,7,9,10,13]benzoxapentaazacyclohexadecine-7,24(6H)-dione], the pEC50 was 8.92.

Regarding `CN1CCNC(=O)COc2ccc(C(C)(F)F)cc2C(=O)N2CCCC[C@H]2c2cc3nc(N4CCC4)cc1n3n2` [Example 54, (18aS)-13-(azetidin-1-yl)-2-(1,1-difluoroethyl)-11-methyl-8,9,10,11,19,20,21,22-octahydro-18aH,24H-18,15-(metheno)pyrido[2,1-l]pyrimido[6,1-h][1,4,7,9,10,13]benzoxapentaazacyclohexadecine-7,24(6H)-dione], the pEC50 is 8.49.

For `Cc1c(N2CC(N)C2)nc2cc3nn2c1N(C)CCNC(=O)COc1ccc(F)cc1C(=O)N1CCCC[C@@H]31` [Example 61, (18aS)-13-(3-aminoazetidin-1-yl)-2-fluoro-11,12-dimethyl-8,9,10,11,19,20,21,22-octahydro-18aH,24H-18,15-(metheno)pyrido[2,1-l]pyrimido[6,1-h][1,4,7,9,10,13]benzoxapentaazacyclohexadecine-7,24(6H)-dione], the pEC50 is 8.75.

Regarding `Cc1c(N2CCC2)nc2cc3nn2c1N(C)CCN(C)C(=O)COc1ccc(F)cc1C(=O)N1CCCC[C@@H]31` [Example 63, (18aS)-13-(azetidin-1-yl)-2-fluoro-8,11,12-trimethyl-8,9,10,11,19,20,21,22-octahydro-18aH, 24H-18,15-(metheno)pyrido[2,1-l]pyrimido[6,1-h][1,4,7,9,10,13]benzoxapentaazacyclohexadecine-7,24(6H)-dione], the pEC50 is 8.60.

As to `Cc1c(CCCN)nc2cc3nn2c1N(C)CCNC(=O)COc1ccc(Cl)cc1C(=O)N1CCCC[C@@H]31` [Example 75, (18aS)-13-(3-aminopropyl)-2-chloro-11,12-dimethyl-8,9,10,11,19,20,21,22-octahydro-18aH, 24H-18,15-(metheno)pyrido[2,1-l]pyrimido[6,1-h][1,4,7,9,10,13]benzoxapentaazacyclohexadecine-7,24 (6H)-dione], the pEC50 is 9.00.

Take `Cc1c(CCCCN)nc2cc3nn2c1N(C)CCNC(=O)COc1ccc(Cl)cc1C(=O)N1CCCC[C@@H]31` [Example 78, (18aS)-13-(4-aminobutyl)-2-chloro-11,12-dimethyl-8,9,10,11,19,20,21,22-octahydro-18aH,24H-18,15-(metheno)pyrido[2,1-l]pyrimido[6,1-h][1,4,7,9,10,13]benzoxapentaazacyclohexadecine-7,24(6H)-dione]: the pEC50 is 8.77.

As to `CN1CCNC(=O)COc2ccc(Cl)cc2C(=O)N2CCCCC2c2cc3nc(N4CC[C@H](N)C4)c(F)c1n3n2` (stereo partly drawn) [Example 87, (18aS)-13-[(3S)-3-aminopyrrolidin-1-yl]-2-chloro-12-fluoro-11-methyl-8,9,10,11,19,20,21,22-octahydro-18aH,24H-18,15-(metheno)pyrido[2,1-l]pyrimido[6,1-h][1,4,7,9,10,13]benzoxapentaazacyclohexadecine-7,24(6H)-dione hydrochloride], the pEC50 is 8.42.

Regarding `[2H]C([2H])([2H])N1CCNC(=O)COc2ccc(F)cc2C(=O)N2CCCC[C@H]2c2cc3nc(C4CC4)cc1n3n2` [Example 94, (18aS)-13-cyclopropyl-2-fluoro-11-trideuteriomethyl-8,9,10,11,19,20,21,22-octahydro-18aH, 24H-18,15-(metheno)pyrido[2,1-l]pyrimido[6,1-h][1,4,7,9,10,13]benzoxapentaazacyclohexadecine-7,24(6H)-dione], the pEC50 is 9.68.

On to `CN1CCNC(=O)COc2ccc(I)cc2C(=O)N2CCCC[C@H]2c2cc3nc(C4CC4)cc1n3n2` [Example 97, (18aS)-13-cyclopropyl-2-iodo-1 l-methyl-8,9,10,11,19,20,21,22-octahydro-18aH,24H-18,15-(metheno)pyrido[2,1l-]pyrimido[6,1-h][1,4,7,9,10,13]benzoxapentaazacyclohexadecine-7,24(6H)-dione], for which the pEC50 was 9.12.

As to `CN1CCNC(=O)COc2ccc(C3CC3)cc2C(=O)N2CCCC[C@H]2c2cc3nc(C4CC4)cc1n3n2` [Example 99, (18aS)-2,13-dicyclopropyl-11-methyl-8,9,10,11,19,20,21,22-octahydro-18aH,24H-18,15-(metheno)pyrido[2,1-l]pyrimido[6,1-h][1,4,7,9,10,13]benzoxapentaazacyclohexadecine-7,24(6H)-dione], the pEC50 was 9.24.

On to `CCCc1cc2n3nc(cc3n1)[C@@H]1CCCCN1C(=O)c1cc(CN)ccc1OCC(=O)NCCN2C` [Example 101, (18aS)-2-(aminomethyl)-11-methyl-13-propyl-8,9,10,11,19,20,21,22-octahydro-18aH,24H-18,15-(metheno)pyrido[2,1-l]pyrimido[6,1-h][1,4,7,9,10,13]benzoxapentaazacyclohexadecine-7,24(6H)-dione], for which the pEC50 was 7.92.

On to `Cc1ccc2c(c1)C(=O)N1CCCC[C@H]1c1cc3nc(C4CC4)cc(n3n1)N(C)CCNC(=O)CO2` [Example 102, (18aS)-13-cyclopropyl-2,11-dimethyl-8,9,10,11,19,20,21,22-octahydro-18aH,24H-18,15-(metheno)pyrido[2,1-l]pyrimido[6,1-h][1,4,7,9,10,13]benzoxapentaazacyclohexadecine-7,24(6H)-dione], for which the pEC50 is 9.62.

With `CN1CCNC(=O)COc2ccc(Cl)cc2C(=O)N2CCCCC2c2cc3nc(C4CC(O)C4)cc1n3n2` [Example 111, (18aS)-2-chloro-13-(cis-3-hydroxycyclobutyl)-11-methyl-8,9,10,11,19,20,21,22-octahydro-18aH,24H-18,15-(metheno)pyrido[2,1-l]pyrimido[6,1-h][1,4,7,9,10,13]benzoxapentaazacyclohexadecine-7,24(6H)-dione], the pEC50 was 9.35.

Consider `O=C1COc2ccc(F)cc2C(=O)N2CCCC[C@H]2c2cc3nc(C4CC4)cc(n3n2)CCCN1` [Example 121, (18aS)-13-cyclopropyl-2-fluoro-8,9,10,11,19,20,21,22-octahydro-18aH,24H-18,15-(metheno)pyrido[2,1-l]pyrimido[6,1-h][1,4,9,10,13]benzoxatemazacyclohexadecine-7,24(6H)-dione], for which the pEC50 is 7.96.

Regarding `CN1CCNCCOc2ccc(F)cc2C(=O)N2CCCC[C@H]2c2cc3nc(N4CCC4)cc1n3n2` [Example 133, (18aS)-13-(azetidin-1-yl)-2-fluoro-11-methyl-6,7,8,9,10,11,19,20,21,22-decahydro-18aH,24H-18,15-(metheno)pyrido[2,1-l]pyrimido[6,1-h][1,4,7,9,10,13]benzoxapentaazacyclohexadecin-24-one], the pEC50 is 8.87.

Consider `CC1COc2ccc(F)cc2C(=O)N2CCCCC2c2cc3nc(N4CC(N)C4)cc(n3n2)N(C)CCN1` [Example 145, (18aS)-13-(3-aminoazetidin-1-yl)-2-fluoro-7,11-dimethyl-6,7,8,9,10,11,19,20,21,22-decahydro-18aH,24H-18,15-(metheno)pyrido[2,1-l]pyrimido[6,1-h][1,4,7,9,10,13]benzoxapentaazacyclohexadecin-24-one], for which the pEC50 was 7.76.

For `CN1CCOc2ccc(Cl)cc2C(=O)N2CCCC[C@H]2c2cc3nc(N4CC(N)C4)cc(n3n2)N(C)CC1` [Example 151, (18aS)-13-(3-aminoazetidin-1-yl)-2-chloro-8,11-dimethyl-6,7,8,9,10,11,19,20,21,22-decahydro-18aH,24H-18,15-(metheno)pyrido[2,1-l]pyrimido[6,1-h][1,4,7,9,10,13]benzoxapentaazacyclohexadecin-24-one], the pEC50 was 7.77.

For the compound `CN1CCOc2ccc(Cl)cc2C(=O)N2CCCC[C@H]2c2cc3nc(NC4CNC4)cc(n3n2)N(C)CC1` [Example 161, (18aS)-13-[(azetidin-3-yl)amino]-2-chloro-8,11-dimethyl-6,7,8,9,10,11,19,20,21,22-decahydro-18aH,24H-18,15-(metheno)pyrido[2,1-l]pyrimido[6,1-h][1,4,7,9,10,13]benzoxapentaazacyclohexadecin-24-one], the pEC50 was 7.71.
